Experimental data taken from US20250332265A1, “PSMA TARGETED CONJUGATE COMPOUNDS AND USES THEREOF” (priority 2021, published 2025).
Numbered stars: 1 amine (or outer) side, 2 acyl side, 3 side chain; on linkers, the order of the positions; unused ones are H or OH. Bridge positions count the residues as written; N and C are the ends. Square brackets hold non-standard residues; d marks the D form. Peptide text beside a SMILES is read from it. I, II: the chains in the order shown. * marks the point of attachment. Hexanoyl(6-succinimido-3yl) = O=C1CC([*:1])C(=O)N1CCCCCC(=O)[*:2]; Dolaproine = CO[C@@H]([C@@H]1CCCN1)[C@@H](C)C(=O)O; Dil = CC[C@H](C)[C@H](NC)[C@@H](CC(=O)O)OC; γGlu = O=C(O)[C@H](CCC(=O)[*:2])N[*:1]; PABC = O=C(OCc1ccc(N[*:1])cc1)[*:2]; X1 = C[C@@H](N*)[C@@H](O)c1ccccc1; Trx = NC[C@H]1CC[C@H](C(=O)O)CC1; Cit = NC(=O)NCCC[C@H](N)C(=O)O; NMeV = CN[C@H](C(=O)O)C(C)C; CO = O=C([*:1])[*:2]; Ahx = NCCCCCC(=O)O

Tests used:
[1] = tested on: PSMA-positive PC3pip cells; assay: In vitro cytotoxicity assay (CCK-8), PC3pip; assay type: cell-based, human; conditions: 72 hours incubation
Procedure: Cells (1,000/well) were seeded in 96-well culture plates the day before treatment. Cells were incubated with various concentrations of drugs for 72 hours and cell viability evaluated by CCK-8 (Dojindo). The concentration required to reach 50% of cell proliferation was determined (IC50) by GraphPad Prism 3.0.

[2] = tested on: α-tubulin in PC3pip and PC3flu cells; assay: Immunofluorescence analysis of alpha-tubulin; assay type: cell-based, human; conditions: 5 nM, 24 hours
Procedure: Cells on coverslips at about 70% confluency were incubated with 5 nM of MMAE, PSMA-1-VcMMAE-Cy5.5 or PSMA-1-McMMAE-Cy5.5 for 24 hours. Cells were washed and fixed with 4% paraformaldehyde for 10 minutes, permeabilized with 0.1% Triton™ X-100 for 10 minutes, and blocked with 1% BSA for 1 hour at room temperature. Alpha-tubulin (B5-1-2) Alexa Fluor 488 Mouse Monoclonal Antibody (Invitrogen) was then added at 2 μg/mL in 0.1% BSA and incubated for 3 hours at room temperature. Cells were counterstained with DAPI, mounted with Fluor-Mount aqueous mounting solution, and observed under Leica DM4000B fluorescence microscopy at 40×.

[3] = Maximum tolerated dose (MTD); assay type: in vivo, mice; conditions: single dose i.v., tumor-free athymic nude mice
Excerpt: Mice were monitored daily for 14 days.

[4] = tested on: heterotopic PC3pip tumors; assay: Heterotopic survival study; assay type: in vivo, mice
Excerpt: Male athymic nude mice were implanted subcutaneously with 1×10^6 of PC3pip cells under the right dorsum of the mice. When tumor size reached approximately 100 mm^3 (tumor volume=Length×width^2/2), mice received drugs through tail vein injection. […] Animals were weighed and tumor size measured every other day for 90 days. Cures were defined as no tumor present at end of the 90-day study. When tumors became too large or animals were moribund they were euthanized. Five mice were used in each group.

PC3pip cells [5] = assay: In vitro cytotoxicity by MTT assay, PC3pip; assay type: cell-based, human; conditions: 5 nM, 24 h
Procedure: (§1) In vitro cytotoxicity was measured by MTT assay. Cells (10000 cells/well) were seeded in 96-well plates and incubated for 24 h before adding 5 nM free MMAE, PSMA-MMAE, or PSMA-AuNCs-MMAE. An equivalent amount of PSMA-AuNCs without MMAE was added as a control, and another group of cells pretreated with 50 μM E64 inhibitor for 6 h was also incubated with PSMA-AuNCs-MMAE. After incubation for 1, 4, and 24 h, cells were rinsed with PBS and incubated with 1 mg/mL MTT solution in culture media for 3.5 h. After that media were removed, and 100 μL of DMSO was added. The absorbance was measured 15 min later by a plate reader (Tecan Infinite M200) with absorbance at 570 nm and reference at 620 nm.

PC3flu cells = assay: In vitro cytotoxicity by MTT assay, PC3flu; assay type: cell-based, human; conditions: 5 nM, 24 h
Procedure: as §1

[6] = In vitro cytotoxicity by MTT assay, PC3flu; assay type: cell-based, human; conditions: 5 nM, 24 h, read-out: cell killing / drop of viability, PC3flu cells
Procedure: as §1

PC3pip cells [7] = assay: In vitro radiotherapy (colony survival); assay type: cell-based, human; conditions: 1 nM MMAE and/or 60 μg Au/mL, 6 h, X-ray 0-6 Gy
Procedure: Both PC3pip and PC3flu cells (1×10^5 cells/well) were cultured in 6-well plates for 24 h, and then PSMA-AuNC-MMAE and PSMA-MMAE were added at an equivalent MMAE concentration of 1 nM. Additionally, PSMA-AuNCs without MMAE was added at 60 μg Au/mL. Another group with the addition of a mixture of PSMA-AuNCs and PSMA-AuNC-MMAE at the equivalent dose of Au and MMAE was also evaluated. Mixing was performed so as to keep Au concentrations equivalent. This could not be achieved by adding more PSMA-AuNC-MMAE as this would result in toxic levels of MMAE. Cells without any treatment were used as blank control. Following incubation for 6 h, the media were removed, and cells were rinsed by PBS before exposing to X-ray radiation at doses of 0, 2, 4, and 6 Gy. Next, cells were trypsinized, counted, and reseeded in 6-well plate for colonies to grow. After 2 weeks, all the wells were rinsed with PBS, fixed with 4% paraformaldehyde, and stained by 0.4% crystal violet. The number of colonies from each well was counted to calculate the survive fraction.

PC3pip tumor = assay: In vivo chemoradiotherapy; design: species or system mice
Procedure: Male athymic nude mice were subcutaneously implanted with the PC3pip tumor, and when the tumor size reached about 100 mm^3 (tumor volume=length×width^2/2), the mice were divided into ten groups randomly. Each group was intravenously injected with PBS, PSMA-AuNCs, PSMA-AuNCs-MMAE, PSMA-MMAE, or a mixture of PSMA-AuNCs and PSMA-MMAE at MMAE dose of 400 nmol/kg and an equivalent dose of Au. At 4 h postinjection, five of the groups were irradiated with X-rays (6 Gy, Cs-137 with energy of 0.6616 MeV) focusing on the tumor region, and the other five groups received the same injections but no radiation and were used as controls. Each group contained five mice. All the treatments were given only once, and then the mice were monitored for tumor size and body weight every other day for one month. The coefficient of drug interaction (CDI) is calculated as follows: CDI=C/(A×B),^44 where C is the tumor volume ratio of PSMA-AuNCs-MMAE+RT group to control group, A is the tumor volume ratio of PSMA-AuNCs+RT group to control group, and B is the tumor volume ratio of PSMA-MMAE+RT group to control group; PBS+RT group is the control. […] When the tumors became too large or an animal was moribund, they were euthanized. At the end of monitoring, all mice were euthanized and tumors were isolated and weighed.

Structure (SMILES) | selectivity, differential cytotoxicity between PC3pip and PC3flu cells [1] | disruption of α-tubulin network [2] | maximum tolerated dose (MTD) [3] [nmol/kg] | time by which all mice died ([4]; 160 nmol/kg) [days] | antitumor activity (tumor growth), words ([4]; 160 nmol/kg i.v. every four days, 5 doses) | cell killing, PC3pip cells (PC3pip cells [5]) | cell killing / drop of viability, PC3flu cells (PC3flu cells) | cytotoxicity [6] [%] | radiosensitization (colony survival rate) of PC3pip cells (PC3pip cells [7]) | tumor volume increase (PC3pip tumor; 6 Gy radiation, day 30, MMAE 400 nmol/kg) [%] | tumor volume increase (PC3pip tumor; no radiation, end of observation, MMAE 400 nmol/kg) [%]
CC[C@H](C)[C@@H]([C@@H](CC(=O)N1CCC[C@H]1[C@H](OC)[C@@H](C)C(=O)N[C@H](C)[C@@H](O)c1ccccc1)OC)N(C)C(=O)[C@@H](NC(=O)[C@@H](NC)C(C)C)C(C)C [MMAE, monomethyl auristatin E, reference compound] (H-[NMeV]V[Dil][Dolaproine]-X1) | no selectivity | non-selective tubulin disruption | 700 | ≤ 36 | relatively ineffective at inhibiting tumor growth | over 70% | over 70% |  |  |  | 
CC[C@H](C)[C@@H]([C@@H](CC(=O)N1CCC[C@H]1[C@H](OC)[C@@H](C)C(=O)N[C@H](C)[C@@H](O)c1ccccc1)OC)N(C)C(=O)[C@@H](NC(=O)[C@H](C(C)C)N(C)C(=O)OCc1ccc(NC(=O)[C@H](CCCNC(N)=O)NC(=O)[C@@H](NC(=O)CCCCCN2C(=O)CC(SC[C@H](NC(=O)[C@H](Cc3ccc(O)cc3)NC(=O)[C@H](CCCCN)NC(=O)[C@H](CCC(=O)O)NC(=O)[C@H](CCC(=O)O)NC(=O)[C@H](CCC(=O)O)NC(=O)CCCCCNC(=O)[C@H]3CC[C@H](CNC(=O)CC[C@H](NC(=O)N[C@@H](CCC(=O)O)C(=O)O)C(=O)O)CC3)C(N)=O)C2=O)C(C)C)cc1)C(C)C (stereo partly drawn) [PSMA-MMAE] (I: {Glu-CO-γGlu-Trx-Ahx}-EEEKYC-NH2 / II: V[Cit][PABC][NMeV]V[Dil][Dolaproine]-X1; linker I:6-II:N via Hexanoyl(6-succinimido-3yl); C-terminus assumed) |  |  |  |  |  | 58% |  | 18 | notably lower survival rate | 55 | 163
